Calls of active or inactive are those of the source.
Assays:
[1] = molecular target: Tyrosyl-DNA phosphodiesterase 2 (Homo sapiens, UniProt O95551); experiment: potency against TDP2 phosphodiesterase activity – biochemical, epi absorbance, IC50, dose response (AID 743297)
[2] = molecular target: T1, 1-phosphatidylinositol 4,5-bisphosphate phosphodiesterase beta-3 (Homo sapiens, UniProt Q01970); experiment: Fluorescence-based biochemical high throughput dose response assay to identify inhibitors of phospholipase C isozymes (PLC-B3).
T1 sequence (Q01970 whole entry): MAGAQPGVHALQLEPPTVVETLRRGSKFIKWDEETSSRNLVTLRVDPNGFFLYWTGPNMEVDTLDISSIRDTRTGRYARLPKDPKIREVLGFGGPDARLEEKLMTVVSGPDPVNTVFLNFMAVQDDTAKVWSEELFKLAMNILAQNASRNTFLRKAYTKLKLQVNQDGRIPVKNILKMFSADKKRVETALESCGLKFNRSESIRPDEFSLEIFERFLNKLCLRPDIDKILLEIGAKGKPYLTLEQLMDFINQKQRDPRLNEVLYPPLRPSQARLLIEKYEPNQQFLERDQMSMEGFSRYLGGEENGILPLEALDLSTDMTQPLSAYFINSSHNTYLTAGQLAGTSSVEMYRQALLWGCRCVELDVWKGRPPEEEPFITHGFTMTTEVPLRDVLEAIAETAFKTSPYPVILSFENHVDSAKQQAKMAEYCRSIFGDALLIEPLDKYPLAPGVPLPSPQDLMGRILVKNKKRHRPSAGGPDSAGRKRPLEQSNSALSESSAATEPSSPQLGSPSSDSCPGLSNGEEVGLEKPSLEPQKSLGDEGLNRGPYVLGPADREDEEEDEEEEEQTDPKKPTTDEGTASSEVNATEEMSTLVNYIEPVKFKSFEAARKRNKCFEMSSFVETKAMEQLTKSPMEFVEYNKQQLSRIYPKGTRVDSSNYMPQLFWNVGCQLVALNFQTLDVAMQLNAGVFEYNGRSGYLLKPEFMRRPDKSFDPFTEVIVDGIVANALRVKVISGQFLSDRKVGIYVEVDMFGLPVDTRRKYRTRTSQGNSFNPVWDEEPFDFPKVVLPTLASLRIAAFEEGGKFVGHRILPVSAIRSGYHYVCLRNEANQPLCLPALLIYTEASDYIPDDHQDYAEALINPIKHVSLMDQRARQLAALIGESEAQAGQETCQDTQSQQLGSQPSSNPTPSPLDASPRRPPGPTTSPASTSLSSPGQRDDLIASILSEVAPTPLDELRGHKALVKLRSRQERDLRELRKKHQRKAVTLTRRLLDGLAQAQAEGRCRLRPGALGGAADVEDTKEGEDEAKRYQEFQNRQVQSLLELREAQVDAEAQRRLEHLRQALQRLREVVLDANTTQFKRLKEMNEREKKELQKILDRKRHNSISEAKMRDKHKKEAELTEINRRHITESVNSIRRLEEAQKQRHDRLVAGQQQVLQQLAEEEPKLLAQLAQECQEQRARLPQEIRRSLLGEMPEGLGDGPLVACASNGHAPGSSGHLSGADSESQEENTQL

Hexokinase HKDC1 = molecular target: T2, Hexokinase HKDC1 (Homo sapiens, UniProt Q2TB90); experiment: inhibition of HKDC1 glucose phosphorylation – biochemical, W721R variant, dose response (AID 504729); assay type: functional
T2 sequence (Q2TB90 whole entry): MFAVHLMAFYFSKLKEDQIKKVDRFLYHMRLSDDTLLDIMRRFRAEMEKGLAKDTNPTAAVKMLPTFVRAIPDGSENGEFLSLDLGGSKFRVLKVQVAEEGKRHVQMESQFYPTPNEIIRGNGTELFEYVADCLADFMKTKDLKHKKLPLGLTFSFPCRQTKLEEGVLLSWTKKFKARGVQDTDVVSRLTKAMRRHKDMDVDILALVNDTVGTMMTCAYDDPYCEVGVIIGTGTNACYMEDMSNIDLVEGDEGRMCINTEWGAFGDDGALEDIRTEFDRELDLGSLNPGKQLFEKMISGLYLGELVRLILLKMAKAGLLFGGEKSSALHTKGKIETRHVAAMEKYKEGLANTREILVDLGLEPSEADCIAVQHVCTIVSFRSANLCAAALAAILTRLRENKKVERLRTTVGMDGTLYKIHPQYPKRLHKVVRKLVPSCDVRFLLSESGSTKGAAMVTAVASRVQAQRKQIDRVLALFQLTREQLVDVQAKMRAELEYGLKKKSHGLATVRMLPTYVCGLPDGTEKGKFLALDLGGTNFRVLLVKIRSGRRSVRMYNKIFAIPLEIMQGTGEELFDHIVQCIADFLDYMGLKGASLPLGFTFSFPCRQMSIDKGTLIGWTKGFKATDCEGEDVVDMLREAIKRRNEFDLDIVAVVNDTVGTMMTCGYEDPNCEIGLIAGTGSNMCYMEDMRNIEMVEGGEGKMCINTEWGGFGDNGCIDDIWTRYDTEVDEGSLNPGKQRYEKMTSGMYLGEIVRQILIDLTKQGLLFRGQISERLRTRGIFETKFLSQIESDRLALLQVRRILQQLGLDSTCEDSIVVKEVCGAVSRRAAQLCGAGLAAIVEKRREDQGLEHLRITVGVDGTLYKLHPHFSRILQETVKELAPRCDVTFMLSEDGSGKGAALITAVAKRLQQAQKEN

[3] = molecular target: T3, Endoribonuclease toxin MazF (Escherichia coli K-12, UniProt P0AE70); experiment: MazEF toxin-antitoxin RNase activation – biochemical, fluorescence, single-stranded RNA substrate, SAR follow-up (AID 588603); assay type: functional
T3 sequence (P0AE70 whole entry): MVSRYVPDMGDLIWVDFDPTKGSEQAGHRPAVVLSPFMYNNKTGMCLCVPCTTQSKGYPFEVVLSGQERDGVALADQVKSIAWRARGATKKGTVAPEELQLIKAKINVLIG

[4] = molecular target: T4, Mannose-6-phosphate isomerase (Homo sapiens, UniProt P34949); experiment: MPI inhibition at elevated mannose 6-phosphate – biochemical, fluorescence intensity, high mannose 6-phosphate, primary screen (AID 1220)
T4 sequence (P34949 whole entry): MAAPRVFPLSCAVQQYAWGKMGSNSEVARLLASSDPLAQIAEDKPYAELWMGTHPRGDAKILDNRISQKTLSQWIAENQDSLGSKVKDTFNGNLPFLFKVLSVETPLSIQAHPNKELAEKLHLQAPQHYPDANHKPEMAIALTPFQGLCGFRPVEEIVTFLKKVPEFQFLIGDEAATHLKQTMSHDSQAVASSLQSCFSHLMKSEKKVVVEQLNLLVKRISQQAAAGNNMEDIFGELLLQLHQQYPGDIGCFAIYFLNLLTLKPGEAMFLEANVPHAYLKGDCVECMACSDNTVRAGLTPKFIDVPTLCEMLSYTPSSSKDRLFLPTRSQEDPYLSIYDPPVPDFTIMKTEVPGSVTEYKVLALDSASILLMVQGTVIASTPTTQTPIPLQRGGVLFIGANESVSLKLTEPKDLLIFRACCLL

[5] = Luminescence Cell-Based Dose Response HTS to Identify Inhibitors of 5'UTR Stem-Loop Driven Prion Protein mRNA Translation in H4 Neuroglioblastoma Cells. [Related pubchem assays: 1827 (Project Summary), 1813 (Primary HTS)]; assay type: functional

Sequence of Tyrosyl-DNA phosphodiesterase 2 (O95551 whole entry): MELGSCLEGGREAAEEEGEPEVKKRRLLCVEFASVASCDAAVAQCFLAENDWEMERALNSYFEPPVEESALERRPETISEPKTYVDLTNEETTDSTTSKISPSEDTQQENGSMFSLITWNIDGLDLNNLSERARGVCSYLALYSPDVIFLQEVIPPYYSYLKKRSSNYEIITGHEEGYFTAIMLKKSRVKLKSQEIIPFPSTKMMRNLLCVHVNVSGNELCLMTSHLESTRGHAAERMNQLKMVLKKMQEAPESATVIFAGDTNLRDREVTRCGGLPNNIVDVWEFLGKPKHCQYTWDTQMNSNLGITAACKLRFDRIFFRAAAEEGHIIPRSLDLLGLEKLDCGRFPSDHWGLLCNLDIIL

For `Oc1nc(Nc2ccccc2Cl)cc2ccccc12`, the IC50 [1] was 28.4 µM (inactive).
In the case of `O=C(CCN1C(=O)/C(=C\c2ccco2)SC1=S)Nc1ccc(C(=O)O)c(O)c1`, the IC50 [2] is reported as > 122 µM (inactive).
In the case of `O=C1C=C(c2c(O)ccc3ccccc23)c2ccccc2C1=O`, the IC50 (Hexokinase HKDC1) is reported as 2.47 µM (active) and the EC50 [3] is reported as > 99 µM (inactive).
In the case of `Cc1nc2c(=O)n(C)c(=O)nc-2n(C)n1`, the IC50 [4] is reported as 6.09 µM (active) and the EC50 [5] is reported as 0.251 µM (inconclusive).

— ChEMBL document CHEMBL1201862, “PubChem BioAssay data set” (2004)
